The values below come from patent publication US10208015B2, “Aryl-triazolyl pyridines as pest control agents” (BAYER ANIMAL HEALTH GMBH, priority 2014, dated 2019).

The nature of data set [1]: logP by HPLC on reversed-phase column (C18), EEC Directive 79/831 Annex V.A8. Type of data set: physicochemical. As to conditions: HPLC, C18, acetonitrile (0.1% formic acid)/water (0.09% formic acid) gradient.
For data set [2], the system named is Ctenocephalides felis. The experiment in a line: Ctenocephalides felis in vitro contact test with adult cat fleas. Type of data set: in vivo. The settings on record: application rate 500 g/ha (5 μg/cm^2), after 48 h. The method, then: Ctenocephalides felis—In Vitro Contact Tests with Adult Cat Fleas
(§1) For the coating of the test tubes, 9 mg of active compound are first dissolved in 1 ml of acetone p.a. and then diluted to the desired concentration with acetone p.a. 250 μl of the solution are distributed homogeneously on the inner walls and the base of a 25 ml test tube by turning and rocking on an orbital shaker (rocking rotation at 30 rpm for 2 h). With 900 ppm active compound solution and internal surface 44.7 cm^2, given homogeneous distribution, an area-based dose of 5 μg/cm^2 is achieved.
After the solvent has evaporated off, the tubes are populated with 5-10 adult cat fleas (Ctenocephalides felis), sealed with a perforated plastic lid and incubated in a horizontal position at room temperature and ambient humidity. After 48 h, efficacy is determined. To this end, the test tubes are stood upright and the fleas are knocked to the base of the tube. Fleas which remain motionless at the base or move in an uncoordinated manner are considered to be dead or moribund.
100% efficacy means that all the fleas were dead or moribund. 0% efficacy means that no fleas were harmed.

In data set [3] the test system is Boophilus microplus Parkhurst strain, SP-resistant. The experiment in a line: Boophilus microplus dip test. Type of data set: in vivo. The settings on record: application rate 100 ppm, assessed after 7 days. The method, then: Boophilus microplus—Dip Test
• Test animals: cattle ticks (Boophilus microplus) Parkhurst strain, SP-resistant • Solvent: dimethyl sulphoxide
10 mg of active compound are dissolved in 0.5 ml of dimethyl sulphoxide. To produce a suitable formulation, the active compound solution is diluted with water to the concentration desired in each case.
This active compound preparation is pipetted into tubes. 8-10 engorged adult female cattle ticks (Boophilus microplus) are transferred into a further tube with holes. The tube is immersed into the active compound preparation, and all the ticks are completely wetted. After the liquid has run out, the ticks are transferred on filter discs into plastic dishes and stored in a climate-controlled room.
Efficacy is assessed after 7 days by laying of fertile eggs. Eggs which are not visibly fertile are stored in a climate-controlled cabinet until the larvae hatch after about 42 days. An efficacy of 100% means that none of the ticks has laid any fertile eggs; 0% means that all the eggs are fertile.

Data set [4] concerns Boophilus microplus. Briefly: Boophilus microplus injection test. Type of data set: in vivo. The settings on record: application rate 20 μg/animal, assessed after 7 days. The method, then: Boophilus microplus—Injection Test • Solvent: dimethyl sulphoxide […] The animals are transferred into dishes and kept in a climate-controlled room. Efficacy is assessed after 7 days by laying of fertile eggs. Eggs which are not visibly fertile are stored in a climate-controlled cabinet until the larvae hatch after about 42 days.

The test system of data set [5] is Ctenocephalides felis. The experiment in a line: Ctenocephalides felis oral test. Type of data set: in vivo. The settings on record: application rate 100 ppm in citrated cattle blood, after 2 days. From the text: Ctenocephalides felis—Oral Test • Solvent: dimethyl sulphoxide […] Dilution with citrated cattle blood gives the desired concentration. About 20 unfed adult cat fleas (Ctenocephalides felis) are placed into a chamber which is closed at the top and bottom with gauze. A metal cylinder whose bottom end is closed with parafilm is placed onto the chamber. The cylinder contains the blood/active compound preparation, which can be imbibed by the fleas through the parafilm membrane.

Data set [6] relates to Lucilia cuprina. Briefly: Lucilia cuprina test. It is filed as in vivo. As to conditions: application rate 100 ppm, L1 larvae, after 2 days. The method, then:
(§2) • Solvent: dimethyl sulphoxide
(§3) To produce a suitable preparation of active compound, 10 mg of active compound are mixed with 0.5 ml of dimethyl sulphoxide, and the concentrate is diluted with water to the desired concentration.
About 20 L1 larvae of the Australian sheep blowfly (Lucilia cuprina) are transferred into a test vessel containing minced horsemeat and the active compound preparation of the desired concentration.
After 2 days, the kill in % is determined. 100% means that all the larvae have been killed; 0% means that no larvae have been killed.

The subject of data set [7] is Musca domestica. The experiment in a line: Musca domestica test. Type of data set: in vivo. The settings on record: application rate 100 ppm, adult houseflies, after 2 days. The method, then: as §2, §3
Vessels containing a sponge treated with sugar solution and the active compound preparation of the desired concentration are populated with 10 adult houseflies (Musca domestica).
After 2 days, the kill in % is determined. 100% means that all of the flies have been killed; 0% means that none of the flies have been killed.

Data set [8] concerns Phaedon cochleariae. Briefly: Phaedon cochleariae spray test. The settings on record: application rate 100 g/ha, after 7 days. It is filed as in vivo. The method, then: Phaedon Cochleariae—Spray Test
(§4) • Solvent: 78.0 parts by weight of acetone • 1.5 parts by weight of dimethylformamide • Emulsifier: alkylaryl polyglycol ether
(§5) To produce a suitable preparation of active compound, 1 part by weight of active compound is dissolved using the stated parts by weight of solvent and made up with water containing an emulsifier concentration of 1000 ppm until the desired concentration is attained. To produce further test concentrations, the preparation is diluted with emulsifier-containing water.
After 7 days, the efficacy in % is determined. 100% means that all the beetle larvae have been killed; 0% means that no beetle larvae have been killed.

Data set [9] relates to Spodoptera frugiperda. The experiment in a line: Spodoptera frugiperda spray test. As to conditions: application rate 100 g/ha, after 7 days. Type of data set: in vivo. The method, then:
Spodoptera Frugiperda—Spray Test
as §4, §5
Leaf discs of maize (Zea mays) are sprayed with an active compound preparation of the desired concentration and, after drying, populated with caterpillars of the armyworm (Spodopterafrugiperda).
After 7 days, the efficacy in % is determined. 100% means that all the caterpillars have been killed; 0% means that no caterpillars have been killed.

Data set [10] concerns Tetranychus urticae. Briefly: Tetranychus urticae spray test, OP-resistant. The settings on record: after 6 days. Type of data set: in vivo. The method, then: Tetranychus Urticae—Spray Test, OP-Resistant
as §4
To produce further test concentrations, the preparation is diluted with emulsifier-containing water.
After 6 days, the efficacy in % is determined. 100% means that all the spider mites have been killed; 0% means that none of the spider mites have been killed.

For data set [11], the system named is Myzus persicae. The experiment in a line: Myzus persicae spray test. It is filed as in vivo. As to conditions: application rate 100 g/ha, after 6 days. The method, then:
Myzus Persicae—Spray Test […] To produce further test concentrations, the preparation is diluted with emulsifier-containing water. Discs of Chinese cabbage leaves (Brassica pekinensis) infested by all stages of the green peach aphid (Myzus persicae) are sprayed with an active compound preparation of the desired concentration.

Data set [12] deals with Rhipicephalus sanguineus. The experiment in a line: Rhipicephalus sanguineus in vitro contact test with adult brown dog ticks. Type of data set: in vivo. As to conditions: application rate 500 g/ha (5 μg/cm^2), after 48 h. The method, then: Rhipicephalus sanguineus—In Vitro Contact Tests with Adult Brown Dog Ticks
as §1
After the solvent has evaporated off, the tubes are populated with 5-10 adult dog ticks (Rhipicephalus sanguineus), sealed with a perforated plastic lid and incubated in a horizontal position in the dark at room temperature and ambient humidity. After 48 h, efficacy is determined. To this end, the ticks are knocked to the floor of the tube and incubated on a hotplate at 45-50° C. for not more than 5 min. Ticks which remain motionless on the floor or move in such an uncoordinated manner that they are unable to deliberately avoid the heat by climbing upwards are considered to be dead or moribund.
An efficacy of 100% means that all the ticks were dead or moribund. 0% efficacy means that none of the ticks had been harmed.

The compound `Cc1ncc(-c2cn(-c3c(Cl)cc(C(F)(C(F)(F)F)C(F)(F)F)cc3Cl)nn2)cc1C(=O)NC1(C#N)CC1` [Example 6] gave a logP in [1] of 3.5. For the same compound, the “efficacy (fleas dead or moribund)” value in [2] was 100%. Also, the “efficacy (laying of fertile eggs)” value in data set [3] and in [4] was 100% in each case. The “efficacy (kill in %)” value in data set [5], in data set [6] and in data set [7] was 100% throughout. Besides, the efficacy in % in data set [8], in [9] and in data set [10] (application rate 100 g/ha) was 100% each time.

As for `Cc1cc(C(F)(C(F)(F)F)C(F)(F)F)cc(C(F)(F)F)c1-n1cc(-c2cnc(Cl)c(C(=O)N(C)C3CC3)c2)nn1` [Example 15], the logP in data set [1] is listed as 4.3. Moreover, the “efficacy (fleas dead or moribund)” value in [2] came out at 100%. In addition, the “efficacy (laying of fertile eggs)” value in [3] and in data set [4] was 100% throughout. The “efficacy (kill in %)” value in [5], in [6] and in data set [7] was 100% in each case. The efficacy in % is reported as 90% in [11], 100% in data set [8], 100% in data set [9] and 100% in [10] (application rate 100 g/ha).

As to `COc1ncc(-c2cn(-c3c(Cl)cc(C(F)(C(F)(F)F)C(F)(F)F)cc3Cl)nn2)cc1C(=O)NC1(C#N)CC1` [Example 4], the logP in [1] is 4.3. The “efficacy (laying of fertile eggs)” value in data set [4] turned out to be 100%. Also, the “efficacy (kill in %)” value in data set [5], in data set [6] and in [7] was 100% throughout. Besides, the efficacy in % in data set [8] and in data set [9] was 100% in each case.

`Cc1cc(C(F)(C(F)(F)F)C(F)(F)F)cc(C(F)(F)F)c1-n1cc(-c2cnc(Cl)c(C(=O)NC3CC3)c2)nn1` [Example 13]: the lipophilicity (logP) in data set [1] was 3.9. In data set [2], the “efficacy (fleas dead or moribund)” value is 100%. In addition, in [12], the “efficacy (ticks dead or moribund)” value worked out at 100%. Further, the “efficacy (laying of fertile eggs)” value in [3] and in [4] was 100% throughout. For the same compound, the “efficacy (kill in %)” value in data set [5], in [6] and in [7] was 100% each time. Besides, the efficacy in % in data set [11] turned out to be 90%; in data set [8], 100%; in [9] it was 100%; in [10] (application rate 100 g/ha) it was 100%.

In turn, `N#CC1(NC(=O)c2cc(-c3cn(-c4c(Cl)cc(C(F)(C(F)(F)F)C(F)(F)F)cc4C(F)(F)F)nn3)cnc2Cl)CC1` [Example 17] had a log partition coefficient (logP) in data set [1] of 3.9. The “efficacy (fleas dead or moribund)” value in [2] turned out to be 100%. Moreover, the “efficacy (laying of fertile eggs)” value in data set [3] and in data set [4] was 100% in each case. Moreover, the “efficacy (kill in %)” value in [5], in data set [6] and in data set [7] was 100% throughout. The efficacy in % in data set [8] and in data set [10] (application rate 100 g/ha) was 100% in each case.

Consider `COc1ncc(-c2cn(-c3c(C)cc(C(F)(C(F)(F)F)C(F)(F)F)cc3C)nn2)cc1C(=O)NC1(C#N)CC1` [Example 7], for which, in data set [1], the lipophilicity (logP) is given as 4.2. For the same compound, the “efficacy (laying of fertile eggs)” value in data set [4] turned out to be 100%. The “efficacy (kill in %)” value in [5] and in [6] was 100% each time. The efficacy in % in [8] and in data set [9] was 100% in each case.

Regarding `Cc1cc(C(F)(C(F)(F)F)C(F)(F)F)cc(C(F)(F)F)c1-n1cc(-c2cnc(Cl)c(C(=O)NC3(C#N)CC3)c2)nn1` [Example 14], the logP in data set [1] is reported as 3.9. Also, the “efficacy (fleas dead or moribund)” value in data set [2] is 80%. Besides, in data set [12], the “efficacy (ticks dead or moribund)” value is given as 100%. For the same compound, the “efficacy (laying of fertile eggs)” value in [3] and in data set [4] was 100% throughout. Moreover, the results for the “efficacy (kill in %)” value in [5], in data set [6] and in [7] were 100%, 90% and 100%, respectively. Besides, the efficacy in % in [8], in data set [9] and in data set [10] (application rate 100 g/ha) was 100% throughout.

In turn, `CN(C(=O)c1cc(-c2cn(-c3c(Cl)cc(C(F)(C(F)(F)F)C(F)(F)F)cc3OC(F)(F)F)nn2)cnc1Cl)C1CC1` [Example 35] registered a logP in data set [1] of 4.6. Besides, in data set [4], the “efficacy (laying of fertile eggs)” value worked out at 100%. Besides, the “efficacy (kill in %)” value in [5], in data set [6] and in [7] was 100% each time. The efficacy in % is reported as 90% in [11], 100% in data set [8], 100% in [9] and 100% in data set [10] (application rate 100 g/ha).

In data set [1], `COc1ncc(-c2cn(-c3c(C)cc(C(F)(C(F)(F)F)C(F)(F)F)cc3C)nn2)cc1C(=O)NC1CC1` [Example 11] displayed a logP of 4.3. The “efficacy (laying of fertile eggs)” value in [4] worked out at 100%. Moreover, the “efficacy (kill in %)” value in data set [5], in data set [6] and in data set [7] was 100% in each case. For the same compound, the efficacy in % is listed as 100% in data set [8], 100% in data set [9] and 90% in data set [10] (application rate 20 g/ha).

A word on the logP: it is a log measure of how a compound divides between an organic and an aqueous phase. Low values mean lower lipophilicity, high ones higher lipophilicity.
